From US20230295068A1, “NOVEL CYCLOALKENONE COMPOUND OR SALT THEREOF” (TAIHO PHARMACEUTICAL CO., LTD., priority 2020, published 2023)

Test system: ND3 neuronal cell line
Experiment: Measurement of nerve growth stimulation effect (neurite bearing assay, neurite length assay, number of cells)
Assay type: cell-based
Conditions: relative cell number, DMSO well = 1; for viability at 1 µM / viability at 3 µM / viability at 5 µM / viability at 10 µM / viability at 30 µM / viability at 100 µM: 6 hours; for Number of cells: ND3 cells, 6 h
Protocol: To evaluate the nerve growth stimulation effect, neurite bearing assay (proportion of neurite-bearing cells) and neurite length assay (neurite length) were analyzed with reference to the method of Topalli et al. (Brain Research 1030 (2004), pp. 116-124).
An ND3 neuronal cell line (European Collection of Authenticated Cell Cultures) was seeded in a DMEM medium containing 10% fetal bovine serum (0.6×10^4 cells/1 mL) in a 24-well plate. 24 hours later, the medium of seeded cells was removed, and a solution in which the compound of the present disclosure that was sequentially diluted in dimethyl sulfoxide (DMSO) was adjusted in DIEM containing 0.1% bovine serum albumin so that the DMSO final concentration was 0.1%, was added to cells (evaluation performed in duplicate). After six hours from the addition, the proportion of neurite-bearing cells (the number of cells having a neurite longer than the diameter of the cell body/number of total cells), and the neurite length per cell were analyzed. The number of total cells, proportion of neurite-bearing cells, and neurite length per cell were analyzed using a MetaMorph Neurite Outgrowth Application Module (Molecular Devices Japan K.K.). The number of cells was defined as the relative cell number, taking the number of cells per well containing DMSO as 1. The relative activity of each compound when the maximum activity of 3-(15-methoxypentadecyl)-2,4,4-trimethylcyclohexa-2-en-1-one (compound 24) in each test was defined as 1 is shown (Table 9). For the compounds for which multiple tests were conducted, the average value was shown. Data with a number of cells of 0.5 or more was also used. Accordingly, if the number of cells was less than 0.5, the neurite length per cell and the proportion of neurite-bearing cells were defined as “-”.

CC1=C(CCCCCCCCCCCCCCC(=O)N(C)C)C(C)(C)CCC1=O [Compound 54, N,N-dimethyl-15-(2,6,6-trimethyl-3-oxocyclohex-1-en-1-yl)pentadecanamide]
viability at 1 µM: 93%
viability at 3 µM: 112%
viability at 5 µM: 87%
viability at 10 µM: 90%
viability at 30 µM: 4%
viability at 100 µM: 5%

COCCCCCCCCCCCCCCCC1=C(C)C(=NO)CCC1(C)C [Compound 67, 3-(15-methoxypentadecyl)-2,4,4-trimethylcyclohex-2-en-1-one oxime]
Number of cells (1 μM compound): 0.92
Number of cells (3 μM compound): 0.89
Number of cells (5 μM compound): 0.80
Number of cells (10 μM compound): 0.75
Number of cells (30 μM compound): 0.94
Number of cells (100 μM compound): 0.93

CCOCCCCCCCCCCCCCCCC1=C(C)C(=O)CCC1(C)C [Compound 25, 3-(15-ethoxypentadecyl)-2,4,4-trimethylcyclohex-2-en-1-one]
viability at 1 µM: 97%
viability at 3 µM: 103%
viability at 5 µM: 97%
viability at 10 µM: 97%
viability at 30 µM: 98%
viability at 100 µM: 94%

COC(C)(C)CCCCCCCCCCCCCCC1=C(C)C(O)CCC1(C)C (centres unmarked) [Compound 47, 3-(15-methoxy-15-methylhexadecyl)-2,4,4-trimethylcyclohex-2-en-1-ol]
viability at 1 µM: 98%
viability at 3 µM: 91%
viability at 5 µM: 85%
viability at 10 µM: 89%
viability at 30 µM: 88%
viability at 100 µM: 87%

COCCCCCCCCCCCCCCCC1=C(C(C)C)C(=O)CCC1(C)C [Compound 62, 2-isopropyl-3-(15-methoxypentadecyl)-4,4-dimethylcyclohex-2-en-1-one]
Number of cells (1 μM compound): 0.92
Number of cells (3 μM compound): 0.89
Number of cells (5 μM compound): 0.83
Number of cells (10 μM compound): 0.78
Number of cells (30 μM compound): 0.91
Number of cells (100 μM compound): 0.91

CCOCCCCCCCCCCCCCC1=C(C)C(=O)CCC1(C)C [Compound 17, 3-(13-ethoxytridecyl)-2,4,4-trimethylcyclohex-2-en-1-one]
viability at 1 µM: 99%
viability at 3 µM: 105%
viability at 5 µM: 97%
viability at 10 µM: 104%
viability at 30 µM: 72%
viability at 100 µM: 81%

CCOCCCCCCCCCCCCCCC1=C(C)C(=O)CC1(C)C [Compound 73, 2,4,4-trimethyl-3-(14-ethoxytetradecyl)cyclopent-2-en-1-one]
Number of cells (1 μM compound): 0.91
Number of cells (3 μM compound): 0.86
Number of cells (5 μM compound): 0.84
Number of cells (10 μM compound): 0.82
Number of cells (30 μM compound): 0.61
Number of cells (100 μM compound): 0.09

CCCOCCCCCCCCCCCCC1=C(C)C(=O)CCC1(C)C [Compound 14, 2,4,4-trimethyl-3-(12-propoxydodecyl)cyclohex-2-en-1-one]
viability at 1 µM: 98%
viability at 3 µM: 98%
viability at 5 µM: 91%
viability at 10 µM: 95%
viability at 30 µM: 95%
viability at 100 µM: 75%

CCOCCCCCCCCCCCCCCC1=C(C)C(=O)CCC1(C)C [Compound 22, 3-(14-ethoxytetradecyl)-2,4,4-trimethylcyclohex-2-en-1-one]
viability at 1 µM: 114%
viability at 3 µM: 103%
viability at 5 µM: 94%
viability at 10 µM: 103%
viability at 30 µM: 99%
viability at 100 µM: 97%

CC1=C(CCCCCCCCCCCCCCC(N)=O)C(C)(C)CCC1=O [Compound 32, 15-(2,6,6-trimethyl-3-oxocyclohex-1-en-1-yl)pentadecanamide]
viability at 1 µM: 92%
viability at 3 µM: 93%
viability at 5 µM: 81%
viability at 10 µM: 81%
viability at 30 µM: 54%
viability at 100 µM: 9%

CCOC(=O)OCCCCCCCCCCCCCCCC1=C(C)C(=O)CCC1(C)C [Compound 57, ethyl (15-(2,6,6-trimethyl-3-oxocyclohex-1-en-1-yl)pentadecyl) carbonate]
viability at 1 µM: 96%
viability at 3 µM: 93%
viability at 5 µM: 86%
viability at 10 µM: 90%
viability at 30 µM: 97%
viability at 100 µM: 100%

COCCCCCCCCCCCCC1=C(C)C(=O)CC1(C)C [Compound 70, 3-(12-methoxydodecyl)-2,4,4-trimethylcyclopent-2-en-1-one]
Number of cells (1 μM compound): 0.84
Number of cells (3 μM compound): 0.91
Number of cells (5 μM compound): 0.91
Number of cells (10 μM compound): 0.86
Number of cells (30 μM compound): 0.79
Number of cells (100 μM compound): 0.73

CC1=C(CCCCCCCCCCCCCCC#N)C(C)(C)CCC1=O [Compound 34, 15-(2,6,6-trimethyl-3-oxocyclohex-1-en-1-yl)pentadecanitrile]
viability at 1 µM: 106%
viability at 3 µM: 101%
viability at 5 µM: 96%
viability at 10 µM: 98%
viability at 30 µM: 98%
viability at 100 µM: 97%

[2H]C([2H])([2H])OCCCCCCCCCCCCCCCC1=C(C)C(=O)CCC1(C)C [Compound 27, 3-(15-(methoxy-d3)pentadecyl)-2,4,4-trimethylcyclohex-2-en-1-one]
viability at 3 µM: 90%
viability at 5 µM: 87%
viability at 10 µM: 83%
viability at 30 µM: 83%
viability at 100 µM: 88%

COCCCCCCCCCCCCCCCC1=C(I)C(=O)CCC1(C)C [Compound 40, 2-iodo-3-(15-methoxypentadecyl)-4,4-dimethylcyclohex-2-en-1-one]
viability at 1 µM: 94%
viability at 3 µM: 104%
viability at 5 µM: 97%
viability at 10 µM: 93%
viability at 30 µM: 103%
viability at 100 µM: 98%

COCCCCCCCCCCCCCCCC1=C(C)C(=O)CCC1 [Compound 38, 3-(15-methoxypentadecyl)-2-methylcyclohex-2-en-1-one]
viability at 1 µM: 96%
viability at 3 µM: 101%
viability at 5 µM: 91%
viability at 10 µM: 86%
viability at 30 µM: 80%
viability at 100 µM: 52%

CC1=C(CCCCCCCCCCCCCCCO)CCCC1=O [Compound 7, 3-(15-hydroxypentadecyl)-2-methylcyclohex-2-en-1-one, reference compound]
viability at 1 µM: 100%
viability at 3 µM: 100%
viability at 5 µM: 87%
viability at 10 µM: 86%
viability at 30 µM: 17%
viability at 100 µM: 19%

COCCCCCCCCCCCCCCCC1=C(C)C(=O)CC1 [Compound 45, 3-(15-methoxypentadecyl)-2-methylcyclopent-2-en-1-one]
viability at 1 µM: 94%
viability at 3 µM: 90%
viability at 5 µM: 74%
viability at 10 µM: 83%
viability at 30 µM: 71%
viability at 100 µM: 75%

COCCCCCCCCCCCCCCCC1=CC(=O)CCC12CC2 [Compound 43, 4-(15-methoxypentadecyl)spiro[2,5]oct-4-en-6-one]
viability at 1 µM: 97%
viability at 3 µM: 97%
viability at 5 µM: 85%
viability at 10 µM: 86%
viability at 30 µM: 96%
viability at 100 µM: 101%

CCCCOCCCCCCCCCCCCCC1=C(C)C(=O)CCC1(C)C [Compound 20, 3-(13-butoxytridecyl)-2,4,4-trimethylcyclohex-2-en-1-one]
viability at 1 µM: 110%
viability at 3 µM: 110%
viability at 5 µM: 96%
viability at 10 µM: 90%
viability at 30 µM: 113%
viability at 100 µM: 117%

CCNC(=O)OCCCCCCCCCCCCCCCC1=C(C)C(=O)CCC1(C)C [Compound 56, 15-(2,6,6-trimethyl-3-oxocyclohex-1-en-1-yl)pentadecylethylcarbamate]
viability at 1 µM: 94%
viability at 3 µM: 106%
viability at 5 µM: 93%
viability at 10 µM: 95%
viability at 30 µM: 95%
viability at 100 µM: 93%

CCCC1=C(CCCCCCCCCCCCCCCOC)C(C)(C)CCC1=O [Compound 61, 3-(15-methoxypentadecyl)-4,4-dimethyl-2-propylcyclohex-2-en-1-one]
Number of cells (1 μM compound): 0.84
Number of cells (3 μM compound): 0.82
Number of cells (5 μM compound): 0.87
Number of cells (10 μM compound): 0.77
Number of cells (30 μM compound): 0.92
Number of cells (100 μM compound): 0.82

CCCOCCCCCCCCCCCCCC1=C(C)C(=O)CCC1(C)C [Compound 19, 2,4,4-trimethyl-3-(13-propoxytridecyl)cyclohex-2-en-1-one]
viability at 1 µM: 98%
viability at 3 µM: 105%
viability at 5 µM: 85%
viability at 10 µM: 88%
viability at 30 µM: 111%
viability at 100 µM: 105%

CC1=C(CCCCCCCCCCCCCCCOC(=O)c2ccccc2)C(C)(C)CCC1=O [Compound 53, 15-(2,6,6-trimethyl-3-oxocyclohex-1-en-1-yl)pentadecyl benzoate]
viability at 1 µM: 91%
viability at 3 µM: 95%
viability at 5 µM: 94%
viability at 10 µM: 96%
viability at 30 µM: 105%
viability at 100 µM: 115%
